Assay results reported in ChEMBL document CHEMBL5543151, “Rational Design of a Novel Class of Human ClpP Agonists through a Ring-Opening Strategy with Enhanced Antileukemia Activity” (J Med Chem, 2024).

How the values were obtained:
MV4-11 [1] = assay: Anti-leukemia activity against human MV4-11 cells assessed as decrease in cell proliferation incubated for 72 hrs by CCK-8 assay; assay type: functional, cell-based; conditions: MV4-11, 72 h
MV4-11 [2] = assay: Potency index, ratio of ONC201 IC50 to test compound IC50 for anti-leukemia activity against human MV4-11 cells assessed as decrease in cell proliferation incubated for 72 hrs by CCK-8 assay; assay type: functional
[3] = target: T1, ATP-dependent Clp protease proteolytic subunit, mitochondrial (Homo sapiens, UniProt Q16740); assay: Agonist activity at human Casein lysing protease P (HsClpP) assessed as proteolytic activity by measuring alpha-casein hydrolysis measured after 2 hrs incubation by fluorescence assay
T1 sequence (Q16740 whole entry): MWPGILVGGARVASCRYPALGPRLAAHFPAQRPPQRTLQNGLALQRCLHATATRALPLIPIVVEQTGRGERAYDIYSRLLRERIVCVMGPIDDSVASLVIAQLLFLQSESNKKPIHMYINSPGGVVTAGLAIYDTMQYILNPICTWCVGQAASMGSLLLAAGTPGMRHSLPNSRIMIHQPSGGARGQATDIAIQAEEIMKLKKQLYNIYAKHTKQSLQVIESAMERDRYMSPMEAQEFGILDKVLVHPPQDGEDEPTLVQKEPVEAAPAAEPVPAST

[4] = target: T1, ATP-dependent Clp protease proteolytic subunit, mitochondrial; assay: Binding affinity to human Casein lysing protease P (HsClpP) assessed as change in melting temperature measured after 2 hrs differential scanning fluorimetry (DSF) assay
MV4-11 [5] = assay: Anti-leukemia activity against human MV4-11 cells assessed as decrease in cell proliferation incubated for 24 hrs by CCK-8 assay; assay type: functional, cell-based; conditions: MV4-11, 24 h
MV4-11 [6] = assay: Anti-leukemia activity against human MV4-11 cells assessed as decrease in cell proliferation incubated for 48 hrs by CCK-8 assay; assay type: functional, cell-based; conditions: MV4-11, 48 h
MOLM-13 = assay: Anti-leukemia activity against human MOLM-13 cells assessed as decrease in cell proliferation incubated for 72 hrs by CCK-8 assay; assay type: functional, cell-based; conditions: MOLM-13, 72 h
U-937 = assay: Anti-leukemia activity against human U-937 cells assessed as decrease in cell proliferation incubated for 72 hrs by CCK-8 assay; assay type: functional, cell-based; conditions: U-937, 72 h
OCI-AML2 = assay: Anti-leukemia activity against human OCI-AML2 cells assessed as decrease in cell proliferation incubated for 72 hrs by CCK-8 assay; assay type: functional, cell-based; conditions: OCI-AML2, 72 h
THP-1 = assay: Anti-leukemia activity against human THP-1 cells assessed as decrease in cell proliferation incubated for 72 hrs by CCK-8 assay; assay type: functional, cell-based; conditions: THP-1, 72 h
HL-60 = assay: Anti-leukemia activity against human HL-60 cells assessed as decrease in cell proliferation incubated for 72 hrs by CCK-8 assay; assay type: functional, cell-based; conditions: HL-60, 72 h
Kasumi 1 = assay: Anti-leukemia activity against human Kasumi 1 cells assessed as decrease in cell proliferation incubated for 72 hrs by CCK-8 assay; assay type: functional, cell-based; conditions: Kasumi 1, 72 h
K562 = assay: Anti-leukemia activity against human K562 cells assessed as decrease in cell proliferation incubated for 72 hrs by CCK-8 assay; assay type: functional, cell-based; conditions: K562, 72 h
MV4-11 [7] = assay: Induction of apoptosis in human MV4-11 cells assessed as increase in apoptotic (annexin V-positive) cell proportions by measuring apoptotic rate at 120 nM measured after 48 hrs by Annexin V-647/P1 apoptosis detection assay relative to control; assay type: functional
[8] = target: T1, ATP-dependent Clp protease proteolytic subunit, mitochondrial; conditions: filed as agonist, dose 10.0 µM, time 2.0 hrs

SMILES | IC50 (MV4-11 [1]) [µM] | Ratio IC50 (MV4-11 [2]) | EC50 [3] [µM] | EC50 [4] [µM] | EC50 (MV4-11 [5]) [µM] | EC50 (MV4-11 [6]) [µM] | IC50 (MOLM-13) [µM] | IC50 (U-937) [µM] | IC50 (OCI-AML2) [µM] | IC50 (THP-1) [µM] | IC50 (HL-60) [µM] | IC50 (Kasumi 1) [µM] | IC50 (K562) [µM] | Activity (MV4-11 [7]) [%] | ΔTm [8] [°C]
N#Cc1cccc(CN2CCc3[nH]c(NCc4ccc(F)cc4)nc(=O)c3C2)c1 [listing 1 of 2 here] | 0.03 | 20 | 0.97 | 1.37 | 5.2 | 0.078 | 0.0301 | 0.0782 | 0.0392 | 0.0797 | 0.0405 | 0.0411 | 0.132 | ~80 | –
N#Cc1cccc(CN2CCc3[nH]c(NCc4ccc(F)cc4)nc(=O)c3C2)c1 [listing 2 of 2 here] | – | – | – | – | – | – | – | – | – | – | – | – | – | – | 18.3
